# Results published in patent US20250368632A1, “CR[…] AND CONJUGATES THEREOF” (Universitat Bielefeld, priority 2021, published 2025).
# Key:
# [1] = system: KB-3-1 cells; test: Resazurin cell viability (cytotoxicity) assay, 72 h incubation, KB-3-1 cells; assay type: cell-based; details: resazurin fluorescence, drug concentration at which vitality is 50%, read-out: IC50 values of cryptophycin compounds, KB-3-1 cells
# Experimental: (§1) The KB-3-1 and KB—V1 cells were cultivated as a monolayer in DMEM (Dulbecco's modified Eagle medium) with glucose (4.5 g L^−1), L-glutamine, sodium pyruvate and phenol red, supplemented with 10% (KB-3-1) and 15% (KB—V1) fetal bovine serum. 50 μg mL^−1 gentamycin is added for the KB—V1 cells. The cells were maintained at 37° C. and 5.3% CO2/humidified air. KB—V1 cells were continuously selected during cultivation with vinblastine sulfate (150 nM). On the day before the test, the cells (70% confluence) were detached with trypsin/ethylenediaminetetraacetic acid (EDTA) solution (0.05%/0.02% in DPBS) and plated in sterile 96-well plates in a density of 10,000 cells in 100 μL medium per well. The dilution series of the compounds were prepared from stock solutions in DMSO of concentrations of […]. The stock solutions were diluted with culture medium (15% FBS [KB—V1]; 10% FBS [KB-3-1]) at least 50 times. Some culture medium was added to the wells to adjust the volume of the wells to the wanted dilution factor. The dilution prepared from stock solution was added to the wells. Each concentration was tested in six replicates. Dilution series were prepared by pipetting liquid from well to well. The control contained the same concentration of DMSO as the first dilution. After incubation for 72 h at 37° C. and 5.3% CO2/humidified air, 30 μL of an aqueous resazurin solution (175 μM) was added to each well. The cells were incubated at the same conditions for 6 h. Subsequently, the fluorescence was measured. The excitation was effected at a wavelength of 530 nm, whereas the emission was recorded at a wavelength of 588 nm. The IC50 values were calculated as a sigmoidal dose response curve using GraphPad Prism 4.03. The IC50 values equal the drug concentrations, at which vitality is 50%.
# [2] = system: KB-V1 cells; test: Resazurin cell viability (cytotoxicity) assay, 72 h incubation, KB-V1 cells (selected with vinblastine); assay type: cell-based; details: resazurin fluorescence, drug concentration at which vitality is 50%, read-out: IC50 values of cryptophycin compounds, KB-V1 cells
# Experimental: as §1
Substance,IC50 [1],IC50 [2]
"Cryptophycin [Compound H8, Cryptophycin [uD-Ser]]",0.12 nM,1100 nM
Cryptophycin-[uD-Dab(Alloc)] [Compound C5],0.22 nM,400 nM
Cryptophycin-[uD-Dab-Me2] [Compound C7],0.038 nM,210 nM
Cryptophycin-[uD-Dab] [Compound C6],1 nM,> 50000 nM
Cryptophycin-[uD-HSe(AII)] [Compound Y7],0.018 nM,93 nM
Cryptophycin-[uD-HSe] [Compound Y8],0.8 nM,> 500 nM
Cryptophycin-[uD-Lys(Alloc)] [Compound G5],4200 nM,> 500 nM
Cryptophycin-[uD-Lys] [Compound G6],60000 nM,> 500 nM
Cryptophycin-[uD-Met] [Compound T7],0.02 nM,49 nM
Cryptophycin-[uD-Ser(AII)] [Compound H7],0.011 nM,29 nM
Cryptophycin-[uD-Thr(Allyl)] [Compound Z6],1.5 nM,> 1000 nM
Cryptophycin-[uD-Thr] [Compound Z7],0.026 nM,300 nM
"Cryptophycin-uD[Dab(Alloc,Me)] [Compound B10]",0.021 nM,90 nM
"Cryptophycin-uD[Dap(AII, Me)] [Compound C10]",0.021 nM,0.87 nM
"Cryptophycin-uD[Dap(Alloc,Me)] [Compound P10]",0.045 nM,890 nM
Cryptophycin-uD[Dap(Me)] [Compound P11],0.0087 nM,21 nM
